The source of these data is patent US7119090B2, “Pyrrole substituted 2-indolinone protein kinase inhibitors” (Sugen, Inc., priority 1998, dated 2006).

For one experiment, the system named is HUV-EC-C cells (VEGF). The experiment is described as follows: HUV-EC-C assay, VEGF-stimulated 3H-thymidine incorporation (HUVEC-VEGF). It is filed as cell-based. Conditions: Homo sapiens; Table 1. As to the method: (§1) The following protocol may also be used to measure a compound's activity against PDGF-R, FGF-R, VEGF, aFGF or Flk-1/KDR, all of which are naturally expressed by HUV-EC cells.
(§2) 1. […] After cells have detached from the flask, add an equal volume of assay medium and transfer to a 50 ml sterile centrifuge tube (Fisher Scientific, catalogue no. 05-539-6).
(§3) 2. Wash the cells with about 35 ml assay medium in the 50 ml sterile centrifuge tube by adding the assay medium, centrifuge for 10 minutes at approximately 200x g, aspirate the supernatant, and resuspend with 35 ml D-PBS. Repeat the wash two more times with D-PBS, resuspend the cells in about 1 ml assay medium/is cm^2 of tissue culture flask. Assay medium consists of F12K medium (Gibco BRL, catalogue no. 21127-014) and 0.5% heat-inactivated fetal bovine serum. Count the cells with a Coulter Counter® (Coulter Electronics, Inc.) and add assay medium to the cells to obtain a concentration of 0.8-1.0×10^5 cells/ml.
(§4) 3. Add cells to 96-well flat-bottom plates at 100 μl/well or 0.8-1.0×10^4 cells/well, incubate −24h at 37° C., 5% CO2.
(§5) 1. Make up two-fold test compound titrations in separate 96-well plates, generally 50 μM on down to 0 μM. Use the same assay medium as mentioned in day 0, step 2 above. Titrations are made by adding […] of test compound at 200 μM (4X the final well concentration) to the top well of a particular plate column. Since the stock test compound is usually 20 mM in DMSO, the 200 μM drug concentration contains 2% DMSO.
(§6) A diluent made up to 2% DMSO in assay medium (F12K+0.5% fetal bovine serum) is used as diluent for the test compound titrations in order to dilute the test compound but keep the DMSO concentration constant. Add this diluent to the remaining wells in the column at 60 μl/well. Take 60 μl from the 120 μl of 200 μM test compound dilution in the top well of the column and mix with the 60 μl in the second well of the column. Take 60 μl from this well and mix with the 60 μl in the third well of the column, and so on until two-fold titrations are completed. When the next-to-the-last well is mixed, take 60 μl of the 120 μl in this well and discard it. Leave the last well with 60 μl of DMSO/media diluent as a non-test compound-containing control. Make 9 columns of titrated test compound, enough for triplicate wells each for: (1) VEGF (obtained from Pepro Tech Inc., catalogue no. 100-200, (2) endothelial cell growth factor (ECGF) (also known as acidic fibroblast growth factor, or aFGF) (obtained from Boehringer Mannheim Biochemica, catalogue no. 1439 600), or, (3) human PDGF B/B (1276-956, Boehringer Mannheim, Germany) and assay media control. ECGF comes as a preparation with sodium heparin.
(§7) 2. Transfer 50 μl/well of the test compound dilutions to the 96-well assay plates containing the 0.8-1.0×10^4 cells/100 μl/well of the HUV-EC-C cells from day 0 and incubate […] at 37° C., 5% CO2.
(§8) 3. In triplicate, add 50 μl well of […] VEGF, 20 ng/ml ECGF, or media control to each test compound condition. As with the test compounds, the growth factor concentrations are 4X the desired final concentration. Use the assay media from day 0 step 2 to make the concentrations of growth factors. Incubate approximately 24 hours at 37° C., 5% CO2. Each well will have 50 μl test compound dilution, 50 μl growth factor or media, and 100 μl cells, which calculates to 200 μl/well total. Thus the 4X concentrations of test compound and growth factors become 1X once everything has been added to the wells.
(§9) 1. Add ^3H-thymidine (Amersham, catalogue no. TRK-686) at 1 μCi/well (10 μl/well of 100 μCi/ml solution made up in RPMI media +10% heat-inactivated fetal bovine serum) and incubate ˜24 h at 37° C., 5% CO2. RPMI is obtained from Gibco BRL, catalogue no. 11875-051.
(§10) 1. Freeze plates overnight at −20° C. […]
(Dividing cells build labelled thymidine or BrdU into new DNA.)

The test system of a further experiment is HUV-EC-C cells (aFGF). The experiment is described as follows: HUV-EC-C assay, aFGF (ECGF)-stimulated 3H-thymidine incorporation (HUVEC-aFGF). It is filed as cell-based. Conditions: Homo sapiens; Table 1. As to the method: as §1, §2, §3, §4, §5, §6, §7, §8, §9, §10

A word on the IC50: it is the concentration that inhibits the measured activity by half. A low value points to inhibition by little substance. Consider `CCOc1cccc(-c2ccc3c(c2)NC(=O)/C3=C\c2[nH]c(C)c(CCC(=O)O)c2C)c1` [Example 30, 3-(5-[6-(3-Ethoxy-phenyl)-2-oxo-1,2-dihydroindol-3-ylidenemethyl]-2,4-dimethyl-1H-pyrrol-3-yl)-propionic acid], for which the IC50 in the experiment on HUV-EC-C cells (VEGF) was determined as 250 nM; in the experiment on HUV-EC-C cells (aFGF), 640 nM.

As for `Cc1c(CCC(=O)O)c[nH]c1/C=C1\C(=O)Nc2cc(Br)ccc21` [Example 28, 3-[5-(6-Bromo-2-oxo-1,2-dihydroindol-3-ylidenemethyl)-4-methyl-1H-pyrrol-3-yl]-propionic acid], the values for the half-inhibitory concentration (IC50) in the experiment on HUV-EC-C cells (VEGF) and with HUV-EC-C cells (aFGF) were 150 nM and 1900 nM, respectively.

`COc1ccc2c(c1)/C(=C/c1[nH]cc(CCC(=O)O)c1C)C(=O)N2` [Example 18, 3-[5-(5-Methoxy-2-oxo-1,2-dihydroindol-3-ylidenemethyl)-4-methyl-1H-pyrrol-3-yl]-propionic acid]: the IC50 in the experiment with HUV-EC-C cells (VEGF) was 2400 nM; in the experiment with HUV-EC-C cells (aFGF), 18400 nM.

As for `Cc1cccc2c1/C(=C/c1[nH]cc(CCC(=O)O)c1C)C(=O)N2` [Example 8, 3-[4-Methyl-5-(4-methyl-2-oxo-1,2-dihydroindol-3-ylidenemethyl)-1H-pyrrol-3-yl]-propionic acid], the results for the IC50 with HUV-EC-C cells (VEGF) and in the experiment on HUV-EC-C cells (aFGF) were 740 nM and 4520 nM, respectively.

As to `Cc1[nH]c(/C=C2\C(=O)Nc3ccc(I)cc32)c(C)c1CCC(=O)O` [Example 20, 3-[5-(5-Iodo-2-oxo-1,2-dihydroindol-3-ylidenemethyl)-2,4-dimethyl-1H-pyrrol-3-yl]-propionic acid], the values for the IC50 in the experiment on HUV-EC-C cells (VEGF) and in the experiment on HUV-EC-C cells (aFGF) were 290 nM and 5000 nM, respectively.

Regarding `Cc1c(CCC(=O)O)c[nH]c1/C=C1\C(=O)Nc2cc(Cl)ccc21` [Example 11, 3-[5-(6-Chloro-2-oxo-1,2-dihydroindol-3-ylidenemethyl)-4-methyl-1H-pyrrol-3-yl]-propionic acid], the IC50 in the experiment with HUV-EC-C cells (VEGF) was 1400 nM; with HUV-EC-C cells (aFGF), 9600 nM.

`Cc1c(CCC(=O)O)c[nH]c1/C=C1\C(=O)Nc2ccc(I)cc21` [Example 7, 3-[5-(5-Iodo-2-oxo-1,2-dihydroindol-3-ylidenemethyl)-4-methyl-1H-pyrrol-3-yl]-propionic acid]: the figures for the IC50 in the experiment with HUV-EC-C cells (VEGF) and with HUV-EC-C cells (aFGF) were 1340 nM and 12300 nM, respectively.

Consider `COc1cc2c(cc1OC)/C(=C/c1[nH]cc(CCC(=O)O)c1C)C(=O)N2` [Example 10, 3-[5-(5,6-Dimethoxy-2-oxo-1,2-dihydroindol-3-ylidenemethyl)-4-methyl-1H-pyrrol-3-yl]-propionic acid], for which the half-maximal inhibitory concentration (IC50) was 10600 nM with HUV-EC-C cells (VEGF) and above 50000 nM in the experiment on HUV-EC-C cells (aFGF).

For `Cc1c(CCC(=O)O)c[nH]c1/C=C1\C(=O)Nc2cc(-c3ccccc3)ccc21` [Example 33, 3-[4-Methyl-5-(2-oxo-6-phenyl-1,2-dihydro-indol3-ylidenemethyl)-1H-pyrrol-3-yl]-propionic acid], the IC50 with HUV-EC-C cells (VEGF) stood at 810 nM; in the experiment with HUV-EC-C cells (aFGF) it was 1000 nM.

On to `CCOc1cccc(-c2ccc3c(c2)NC(=O)/C3=C\c2[nH]cc(CCC(=O)O)c2C)c1` [Example 31, 3-{5-[6-(3-Ethoxy-phenyl)-2-oxo-1,2-dihydroindol-3-ylidenemethyl]-4-methyl-1H-pyrrol-3-yl}-propionic acid], for which the IC50 was 90 nM with HUV-EC-C cells (VEGF) and 180 nM in the experiment with HUV-EC-C cells (aFGF).

In the case of `Cc1[nH]c(/C=C2\C(=O)Nc3cc(O)ccc32)c(C)c1CCC(=O)O` [Example 23, 3-[5-(6-Hydroxy-2-oxo-1,2-dihydroindol-3-ylidenemethyl)-2,4-dimethyl-1H-pyrrol-3-yl]-propionic acid], the 50% inhibitory concentration (IC50) with HUV-EC-C cells (VEGF) is 3000 nM; in the experiment on HUV-EC-C cells (aFGF), 1100 nM.

`Cc1ccc2c(c1)/C(=C/c1[nH]c(C)c(CCC(=O)O)c1C)C(=O)N2` [Example 22, 3-[2,4-Dimethyl-5-(5-methyl-2-oxo-1,2-dihydroindol-3-ylidenemethyl)-1H-pyrrol-3-yl]-propionic acid]: the IC50 with HUV-EC-C cells (VEGF) is 130 nM; in the experiment on HUV-EC-C cells (aFGF), 15800 nM.

With `Cc1c(CCC(=O)O)c[nH]c1/C=C1\C(=O)Nc2ccc(Cl)cc21` [Example 1, 3-[5-(5-Chloro-2-oxo-1,2-dihydroindol-3-ylidenemethyl)-4-methyl-1H-pyrrol-3-yl]-propionic acid], the figures for the IC50 in the experiment with HUV-EC-C cells (VEGF) and in the experiment with HUV-EC-C cells (aFGF) were 380 nM and 21400 nM, respectively.

As to `Cc1c(CCC(=O)O)c[nH]c1/C=C1\C(=O)Nc2ccccc21` [Example 4, 3-[4-Methyl-5-(2-oxo-l,2-dihydroindol-3-ylidenemethyl)-1H-pyrrol-3-yl]-propionic acid], the IC50 was 110 nM with HUV-EC-C cells (VEGF) and 7100 nM with HUV-EC-C cells (aFGF).

Consider `Cc1ccc2c(c1)/C(=C/c1[nH]cc(CCC(=O)O)c1C)C(=O)N2` [Example 9, 3-[4-Methyl-5-(5-methyl-2-oxo-1,2-dihydroindol-3-ylidenemethyl)-1H-pyrrol-3-yl]-propionic acid], for which the 50% inhibitory concentration (IC50) was 330 nM with HUV-EC-C cells (VEGF) and 13400 nM in the experiment on HUV-EC-C cells (aFGF).

In the case of `COc1ccc2c(c1)NC(=O)/C2=C\c1[nH]cc(CCC(=O)O)c1C` [Example 2, 3-[5-(6-Methoxy-2-oxo-1,2-dihydroindol-3-ylidenemethyl)-4-methyl-1H-pyrrol-3-yl]-propionic acid], the figures for the half-maximal inhibitory concentration (IC50) with HUV-EC-C cells (VEGF) and in the experiment with HUV-EC-C cells (aFGF) were 1600 nM and 31600 nM, respectively.

Consider `Cc1[nH]c(/C=C2\C(=O)Nc3cc(-c4ccccc4)ccc32)c(C)c1CCC(=O)O` [Example 32, 3-[2,4-Dimethyl-5-(2-oxo-6-phenyl-1,2-dihydroindol-3-ylidenemethyl)-1H-pyrrol-3-yl]-propionic acid], for which the IC50 in the experiment on HUV-EC-C cells (VEGF) and in the experiment on HUV-EC-C cells (aFGF) was 10000 nM each time.

Regarding `Cc1c(CCC(=O)O)c[nH]c1/C=C1\C(=O)Nc2ccc(Br)cc21` [Example 6, 3-[5-(5-Bromo-2-oxo-1,2-dihydroindol-3-ylidenemethyl)-4-methyl-1H-pyrrol-3-yl]-propionic acid], the IC50 in the experiment on HUV-EC-C cells (VEGF) turned out to be 630 nM; in the experiment on HUV-EC-C cells (aFGF), 18400 nM.

In the case of `CCc1ccc2c(c1)/C(=C/c1[nH]cc(CCC(=O)O)c1C)C(=O)N2` [Example 17, 3-[5-(5-Ethyl-2-oxo-1,2-dihydro-indol-3-ylidenemethyl)-4-methyl-1H-pyrrol-3-yl]-propionic acid], the IC50 stood at 1200 nM in the experiment with HUV-EC-C cells (VEGF) and 20000 nM in the experiment with HUV-EC-C cells (aFGF).

With `COc1cccc(-c2ccc3c(c2)NC(=O)/C3=C\c2[nH]cc(CCC(=O)O)c2C)c1` [Example 29, 3-{5-[6-(3-Methoxy-phenyl)-2-oxo-1,2-dihydroindol-3-ylidenemethyl]-4-methyl-1N-pyrrol-3-yl}-propionic acid], the IC50 in the experiment with HUV-EC-C cells (VEGF) was 180 nM; with HUV-EC-C cells (aFGF), 130 nM.

Turning to `Cc1[nH]c(/C=C2\C(=O)Nc3ccc(Br)cc32)c(C)c1CCC(=O)O` [Example 19, 3-[5-(5-Bromo-2-oxo-1,2-dihydroindol-3-ylidenemethyl)-2,4-dimethyl-1H-pyrrol-3-yl]-propionic acid], the IC50 with HUV-EC-C cells (VEGF) was found to be 70 nM; in the experiment with HUV-EC-C cells (aFGF), 3600 nM.

As to `COc1ccc2c(c1)NC(=O)/C2=C\c1[nH]c(C)c(CCC(=O)O)c1C` [Example 24, 3-[5-(6-Methoxy-2-oxo-1,2-dihydroindol-3-ylidenemethyl)-2,4-dimethyl-1H-pyrrol-3-yl]-propionic acid], the IC50 with HUV-EC-C cells (VEGF) was found to be 670 nM; in the experiment on HUV-EC-C cells (aFGF) it was 25100 nM.

With `COC(=O)c1ccc2c(c1)/C(=C/c1[nH]cc(CCC(=O)O)c1C)C(=O)N2` [Example 12, 3-[4-(2-Carboxyethyl)-3-methyl-1H-pyrrol-2-ylmethylene]-2-oxo-2,3-dihydro-1H-indole-5-carboxylic acid methyl ester], the IC50 in the experiment on HUV-EC-C cells (VEGF) was 11000 nM; in the experiment on HUV-EC-C cells (aFGF), 24600 nM.
